In experiment [1] the test system is Nnmt expression in 3T3-L1 cells. Put plainly: Nnmt mRNA by real-time PCR in 3T3-L1. The format is cell-based, mouse. The conditions noted are these: post-confluent 3T3-L1 treated 48 h with individual DIM components, vs unstimulated cells. As for the experimental part:
3T3-L1 Mouse Embryonic Fibroblasts were purchased from American Type Culture Collection (ATCC CL-173). The cells were propagated and maintained in Dulbecco’s modified Eagle’s medium (DMEM, Gibco) supplemented with 10% calf serum (FCS) at 37 °C in 5% CO2 atmosphere. Subconfluents cells were expanded and utilized for the subsequent experiments at the passages 3–6. To induce differentiation, 2-day post-confluent 3T3-L1 pre-adipocytes were cultured for 48 h with DIM (DMEM supplemented with 10% fetal bovine serum (FBS), 1.0 µM Dexamethasone (G. Biosciences), […] Insulin (Sigma) and 0.5 mM IBMX (Sigma). Two days after induction the DIM medium was removed and the cells were maintained in DMED supplemented with 10% FBS and […] Insulin, which was replaced every 48 h, until the cells became fully differentiated (8–10 days after induction). C3H10T1/2 cells were purchased from American Type Culture Collection (ATCC, clone 8, CCL-226, were grown and induced to differentiate following the same protocol, with cell cultures < 3 passages. […] Real-time PCRs were performed using SYBR Green PCR Master Mix (Applied Biosystems) with an ABI PRISM 7900HT Sequence Detection System (Applied Biosystems). RT-PCR data were normalized to GAPDH and expressed relative to control (ddCt method).
For orientation: Quantitative PCR measures a nucleic acid by following its amplification.

Another experiment addresses METTL21A (Homo sapiens, UniProt Q8WXB1). The experiment is described as follows: Methyltransferase Hot Spot radioisotope assay, METTL21A. Format: biochemical. The conditions noted are these: 10-dose, threefold dilution; CC-410 from 300 μM, control from 100 μM; substrate HSPA8-[CTD]. As for the experimental part:
(§1) CC-410 was screened in biochemical assays for activity against a panel of 11 methyltransferases (MT) by using the radioisotope (3H-AdoMet) based MT Hot Spot Assay. All the assays were performed by Reaction Biology Corporation (RBC, Malven, PA, USA). Briefly CC-410 was incubated with the selected MTs, corresponding substrates, and radiolabeled SAM (S-Adenosyl-L-[methyl-3 H]methionine). […] Reaction mixtures were incubated and spotted onto filter papers, which were then washed to remove unreacted SAM, leaving the bound radiolabeled product. Detection of the radiolabeled, methylated product was performed via a nanoliter-scale radioisotope filter binding platform. […] For each assay, control compounds were included as positive controls for enzyme function and assay reproducibility. […] IC50 was calculated by non-linear least square fitting dose–response curve.

The next experiment deals with T1, DNMT3a (Homo sapiens, UniProt Q9Y6K1).
T1 construct: purchased Reaction Biology Corporation
T1 sequence (Q9Y6K1 whole entry, looked up, species assumed): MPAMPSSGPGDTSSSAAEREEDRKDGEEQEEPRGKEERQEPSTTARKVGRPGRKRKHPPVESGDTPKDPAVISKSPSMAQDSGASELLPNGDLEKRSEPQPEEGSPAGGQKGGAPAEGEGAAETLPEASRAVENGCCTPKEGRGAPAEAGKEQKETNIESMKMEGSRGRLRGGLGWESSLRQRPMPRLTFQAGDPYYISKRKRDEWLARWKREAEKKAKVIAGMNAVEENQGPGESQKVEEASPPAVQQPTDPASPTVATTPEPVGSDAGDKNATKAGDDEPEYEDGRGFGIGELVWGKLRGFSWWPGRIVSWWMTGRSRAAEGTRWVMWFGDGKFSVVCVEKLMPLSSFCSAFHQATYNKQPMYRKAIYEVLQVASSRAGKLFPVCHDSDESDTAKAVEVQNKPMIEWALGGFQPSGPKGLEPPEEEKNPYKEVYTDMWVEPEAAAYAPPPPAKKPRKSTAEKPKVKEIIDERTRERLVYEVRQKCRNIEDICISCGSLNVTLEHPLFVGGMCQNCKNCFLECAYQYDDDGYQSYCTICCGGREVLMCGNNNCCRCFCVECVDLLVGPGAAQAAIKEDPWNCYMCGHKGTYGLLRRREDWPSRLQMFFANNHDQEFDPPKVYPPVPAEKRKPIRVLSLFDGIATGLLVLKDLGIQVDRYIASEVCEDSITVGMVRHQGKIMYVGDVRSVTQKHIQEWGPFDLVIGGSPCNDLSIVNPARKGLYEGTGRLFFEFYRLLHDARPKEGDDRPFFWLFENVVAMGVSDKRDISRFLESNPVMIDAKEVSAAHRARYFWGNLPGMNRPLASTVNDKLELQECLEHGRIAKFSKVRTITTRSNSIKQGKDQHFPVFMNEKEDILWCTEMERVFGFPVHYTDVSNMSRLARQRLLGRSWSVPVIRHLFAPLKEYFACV
The experiment is described as follows: Methyltransferase Hot Spot radioisotope assay, DNMT3a. Format: biochemical. As for the experimental part:
(§2) CC-410 was screened in biochemical assays for activity against a panel of 11 methyltransferases (MT) by using the radioisotope (3H-AdoMet) based MT Hot Spot Assay. All the assays were performed by Reaction Biology Corporation (RBC, Malven, PA, USA). Briefly CC-410 was incubated with the selected MTs, corresponding substrates, and radiolabeled SAM (S-Adenosyl-L-[methyl-3 H]methionine). The specific MTs assessed, and the corresponding substrates are as follows: DNMT1- Poly dl-dC, DNMT3a- Lambda DNA, DNMT3b- Lambda DNA, DOT1L- Nucleosomes, EZH2 Complex- Core Histone, METTL21A- HSPA8-[CTD], NRMT1- RCC1, PRMT3- Histone H4, PRMT5/MEP50- Histone H2A, SET1b -Core Histone Complex and SMYD2- Nucleosomes. Reaction mixtures were incubated and spotted onto filter papers, which were then washed to remove unreacted SAM, leaving the bound radiolabeled product. Detection of the radiolabeled, methylated product was performed via a nanoliter-scale radioisotope filter binding platform. […] For each assay, control compounds were included as positive controls for enzyme function and assay reproducibility. […] IC50 was calculated by non-linear least square fitting dose–response curve.

Another experiment addresses T2, SET1b Complex (Homo sapiens, UniProt Q9UPS6).
T2 construct: purchased Reaction Biology Corporation
Put plainly: Methyltransferase Hot Spot radioisotope assay, SET1b Complex. Format: biochemical. The conditions noted are these: 10-dose, threefold dilution; CC-410 from 300 μM, control from 100 μM; substrate Core Histone; read-out: IC50* (M) SET1b Complex. As for the experimental part:
as §2

The target of a further experiment is T3, DNMT3b (Homo sapiens, UniProt Q9UBC3).
T3 construct: purchased Reaction Biology Corporation
The experiment is described as follows: Methyltransferase Hot Spot radioisotope assay, DNMT3b. The format is biochemical. As for the experimental part:
as §2

A further experiment has as its target T4, NRMT1 (Homo sapiens, UniProt Q9BV86).
T4 sequence (Q9BV86 1-223): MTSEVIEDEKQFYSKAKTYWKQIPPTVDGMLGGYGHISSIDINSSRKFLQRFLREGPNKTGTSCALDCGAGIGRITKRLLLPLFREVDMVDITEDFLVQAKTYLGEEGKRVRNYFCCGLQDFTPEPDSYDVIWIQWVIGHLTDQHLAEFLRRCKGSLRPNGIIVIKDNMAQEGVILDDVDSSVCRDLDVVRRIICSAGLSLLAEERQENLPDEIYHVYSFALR
The experiment is described as follows: Methyltransferase Hot Spot radioisotope assay, NRMT1. Format: biochemical. The conditions noted are these: 10-dose, threefold dilution; CC-410 from 300 μM, control from 100 μM; substrate RCC1. As for the experimental part: as §2

For a further experiment, the target named is PRMT3 (Homo sapiens, UniProt O60678). Put plainly: Methyltransferase Hot Spot radioisotope assay, PRMT3. The format is biochemical. The conditions noted are these: 10-dose, threefold dilution; CC-410 from 300 μM, control from 100 μM; substrate Histone H4; read-out: IC50* (M) PRMT3. As for the experimental part:
as §1

pIC50: −log10 of the molar value.

By IC50 is commonly meant the concentration that gives 50% inhibition. As usually defined, the pIC50 is −log10 of the IC50, conventionally taken in molar units. Lower therefore signals a high IC50.

Chain of PRMT3 (O60678 whole entry, species assumed): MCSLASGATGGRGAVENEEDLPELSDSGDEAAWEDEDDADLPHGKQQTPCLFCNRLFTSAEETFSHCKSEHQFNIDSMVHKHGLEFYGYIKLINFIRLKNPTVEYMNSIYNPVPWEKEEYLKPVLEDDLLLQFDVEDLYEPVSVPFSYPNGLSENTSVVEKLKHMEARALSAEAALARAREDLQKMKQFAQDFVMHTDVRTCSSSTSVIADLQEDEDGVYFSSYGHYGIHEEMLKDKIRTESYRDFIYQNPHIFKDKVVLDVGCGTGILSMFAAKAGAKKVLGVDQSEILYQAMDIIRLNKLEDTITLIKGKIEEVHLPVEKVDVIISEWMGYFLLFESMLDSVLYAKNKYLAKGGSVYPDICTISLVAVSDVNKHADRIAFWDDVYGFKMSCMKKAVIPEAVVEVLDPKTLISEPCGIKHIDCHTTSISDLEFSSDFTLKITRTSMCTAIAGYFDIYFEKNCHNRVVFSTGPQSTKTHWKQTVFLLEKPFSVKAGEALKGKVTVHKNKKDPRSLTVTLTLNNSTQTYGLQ
Chain of METTL21A (Q8WXB1 whole entry, species assumed): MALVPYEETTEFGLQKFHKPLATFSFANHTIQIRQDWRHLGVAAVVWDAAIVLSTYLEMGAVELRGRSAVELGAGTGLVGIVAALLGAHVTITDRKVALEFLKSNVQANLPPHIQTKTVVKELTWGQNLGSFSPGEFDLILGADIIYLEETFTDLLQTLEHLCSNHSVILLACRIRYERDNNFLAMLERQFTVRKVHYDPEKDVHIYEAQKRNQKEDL

In the case of `C[C@@H]1C[C@H]2[C@@H]3CCC4=CC(=O)C=C[C@]4(C)[C@@]3(F)[C@@H](O)C[C@]2(C)[C@@]1(O)C(=O)CO` [DEX, dexamethasone], the “Nnmt expression (mRNA, RT-PCR)” value in experiment [1] is on record as “induction comparable with that of the whole cocktail”.
`CC(C)Cn1c(=O)n(C)c(=O)c2[nH]cnc21` [IBMX, 3-isobutyl-1-methylxanthine]: the “Nnmt expression (mRNA, RT-PCR)” value in experiment [1] was “neither insulin nor IBMX impacted Nnmt expression significantly”.
The same measure, in the same setting: the result for “insulin: component of the differentiation-inducing medium (DIM)” reads “neither insulin nor IBMX impacted Nnmt expression significantly”.
Take `Nc1ncnc2c1ncn2[C@@H]1O[C@H](CSCC[C@H](N)C(=O)O)[C@@H](O)[C@H]1O` [SAH, S-(5′-Adenosyl)-L-homocysteine, reference compound]: the IC50 against METTL21A was found to be 76100 nM; at SET1b Complex it was 2e-05 M; on NRMT1, 1680 nM; on PRMT3, 3.88e-06 M. Further, the results for the pIC50 against DNMT3a and on DNMT3b were 6.29 and 6.59, respectively.

The values above are taken from PMC10202359, “Nicotinamide N-methyltransferase (NNMT) regulates the glucocorticoid signaling pathway during the early phase of adipogenesis” (Scientific Reports, 2023).
